According to publication PMC12655621 (Pharmaceuticals, 2025):

Legend:
[1] = Shake-flask logD7.4 n-octanol/PBS; format: physicochemical; settings: n-octanol/PBS pH 7.4, shake-flask, room temperature
Description: A PBS (pH 7.4) solution was saturated with n-octanol, and n-octanol was saturated with PBS (pH 7.4) by vigorous shaking, followed by equilibration for at least 24 h to ensure complete phase separation. The reference compound 4-chloro-6,7-bis(2-methoxyethoxy)quinazoline and analogs 1–7 were dissolved in the octanol phase (previously saturated with PBS), and equal volumes of the aqueous phase (previously saturated with octanol) were added. Final assay solutions were prepared at 10 μM by diluting 2 μL of a 5 mM stock solution into 1 mL of total volume. The biphasic mixtures were shaken for 24 h at room temperature. After equilibration, both the octanolic and aqueous phases were analyzed by UV–visible spectrophotometry using a Shimadzu UV-1603. […] LogD7.4 values were calculated as […]. Each determination was performed in triplicate. Regression analyses and curve fittings were performed using GraphPad Prism 8.0 software (GraphPad Software Inc., LaJolla, CA, USA).

F98 = tested on: F98; set-up: method as in earlier work; settings: F98 rat glioma cells; errors omitted; ref 19 (compounds 8 and 9: ref 13); cited from earlier work
[2] = tested on: Mix of primary glial cell culture; set-up: method as in earlier work; settings: mix of primary glial cell culture (healthy cells); errors omitted; ref 19 (compounds 8 and 9: ref 13); cited from earlier work
C6 = tested on: C6; set-up: method as in earlier work; settings: C6 glioma cells; errors omitted; ref 19 (compounds 8 and 9: ref 13); cited from earlier work
U87 MG = tested on: U87 MG; set-up: method as in earlier work; settings: human U87 MG glioma cells; errors omitted; ref 19 (compounds 8 and 9: ref 13); cited from earlier work

Row | Compound | logD at 24 h [1] | IC50 (F98) | IC50 [2] | IC50 (C6) | IC50 (U87 MG)
1 | COCCOc1cc2ncnc(Cl)c2cc1OCCOC [4-chloro-6,7-bis(2-methoxyethoxy)quinazoline] | 1.02 | – | – | – | –
2 | C#Cc1cccc(Nc2ncnc3cc(OCCOC)c(OCCOC)cc23)c1 [Erl, erlotinib] | – | > 100 µM | > 100 µM | > 100 µM | 63 µM
